According to patent publication US9315522B2, “Antibacterial compounds” (JANSSEN SCIENCES IRELAND UC, priority 2012, dated 2016):
≈ marks a conversion by molar mass, not a printed value. Where “and” joins values, the source holds several entries; their conditions need not be identical. Equal values may be shown once.

Columns and labels:
[1] = molecular target: T1, S. aureus ATCC 29213 FabI (Staphylococcus aureus, UniProt Q6GI75); assay: Staphylococcus aureus FabI enzyme inhibition assay; format: biochemical; conditions: read-out: FabI (300.235) IC50 (converted)
T1 sequence (Q6GI75 1-256): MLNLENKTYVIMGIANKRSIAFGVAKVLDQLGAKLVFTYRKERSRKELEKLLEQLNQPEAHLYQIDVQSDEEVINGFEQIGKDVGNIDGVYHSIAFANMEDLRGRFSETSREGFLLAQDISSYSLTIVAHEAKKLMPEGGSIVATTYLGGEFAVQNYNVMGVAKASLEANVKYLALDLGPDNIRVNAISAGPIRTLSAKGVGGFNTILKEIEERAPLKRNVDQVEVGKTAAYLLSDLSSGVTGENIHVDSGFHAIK
Protocol: Y.1 FabI Enzyme Inhibition: Staphylococcus aureus FabI Enzyme Inhibition Assay
FabI enzyme inhibition assays were carried out in half-area, 384-well microtitre plates. Compounds were evaluated in 40-μl assay mixtures containing 100 mM NaADA, pH 6.5 (ADA=N-[2-acetamido]-2iminodiacetic acid), 250 μM crotonoyl-CoA, 625 μM NADH and 50 μg/ml S. aureus ATCC 29213 FabI. Inhibitors were typically varied over the range of 50 to 0.39 μM. The reaction mixtures were incubated for 30 minutes at room temperature and the reaction was stopped by adding 200 mM Tris buffer (pH 9.0) to create a pH-shift. The consumption of NADH was monitored by measuring the change in absorbance at […]. By comparing sample readings to those of negative (absence of compound) and positive (absence of enzyme) controls, the percent inhibition of enzymatic activity of the compounds was determined A best-fit curve is fitted by a minimum of squares method. From this an IC50-value (expressed in μg/ml), resulting in 50% inhibition of enzymatic activity, was obtained.

S. aureus = assay: Antibacterial susceptibility testing, IC90 determination with 10% human serum (STA + 10% HS); format: cell-based, Staphylococcus aureus; conditions: Staphylococcus aureus, human serum at final concentration of 10%, read-out: STA + 10% HS (361.169) IC90
Protocol: (§1) The following bacteria were used: Staphylococcus aureus ATCC 29213, methicillin-resistant Staphylococcus aureus (MRSA) ATCC 700788 and Escherichia coli ATCC 35218. The bacteria used in this study were grown overnight in flasks containing 100 ml Mueller-Hinton broth (Difco cat. nr. 0757-17) in sterile de-ionized water, with shaking, at 37° C. Stocks were store at −70° C. until use.
(§2) Bacteria were incubated on a tryptic soy agar plate containing 5% sheep blood (Becton Dickinson cat. nr. 254053) for 18-24 hours at 35° C. in aerobic conditions (first passage). For the second passage, fresh Mueller-Hinton broth is inoculated with 5-10 colonies and grown overnight at 35° C. until turbidity (reaching log-phase) in aerobic conditions is reached. The bacterial suspension is then adjusted to 0.5 McFarland density and further diluted 1:100 in Mueller Hinton broth medium. This is used as inoculum.
(§3) MIC assays were performed by the broth microdilution method in a 96-well format (flat-bottom microtitre plates) with a final volume of 0.1 ml Mueller Hinton broth containing two-fold serial dilutions of compounds and inoculated with 5×10^5 CFU/ml of bacteria (standard inoculum size according to CLSI guidelines). Inhibitors are typically varied over the range of 63 to 0.49 μM. The final DMSO concentration in the assay was 1.25% (maximum tolerable DMSO concentration=6%). In the assays where the effect of human serum on the activity of the compounds against S. aureus was tested, human serum was added at a final concentration of 10%. The plates were incubated at 35° C. for 16-20 hours. At the end of incubation the bacterial growth was quantified fluorometrically. For this, resazurin was added to all wells and the plates were re-incubated. The incubation time is dependent on the type of bacteria. A change in color from blue to pink indicated the growth of bacteria. The fluorescence was read in computer-controlled fluorometer (Fluoroskan Ascent FL, Labsystems) at an excitation wavelength 540 nm and an emission wavelength of 590 nm. The % growth inhibition achieved by the compounds was calculated according to standard methods. The IC90 (expressed in μg/ml) was defined as the 90% inhibitory concentration for bacterial growth. A panel of reference compounds were simultaneously tested for QC approval.
The results are depicted in the table(s) below (STA+10% HS).

[2] = system: Staphylococcus aureus ATCC 29213; assay: Antibacterial susceptibility testing, IC90 determination (STA); format: cell-based; conditions: resazurin; for IC90: Staphylococcus aureus, ATCC29213, Staphylococcus aureus ATCC 29213, broth microdilution, read-out: STA (361.159) IC90
Protocol: as §1, §2
The result(s) are depicted the table below (for STA ATCC 29213).
as §3

[3] = Cytotoxicity MTT assay (HELAM); format: cell-based, Human; conditions: human, HelaM cells, read-out: HELAM (222.125) CC50
Protocol: Cytotoxicity of the compounds was evaluated using the MTT assay. Human HelaM cells grown in 96-well plates were exposed to serial dilutions of the tested compounds (final volume of 0.2 ml) and incubated for 72 hours at 37° C. and 5% CO2. Inhibitors are typically varied over the range of 25 to 0.8 μM. The final DMSO concentration in the assay is 0.5%. MTT (3-(4,5-Dimethylthiazol-2-yl)-2,5-diphenyltetrazolium bromide, a tetrazole) was added and reduced to purple formazan only in living cells. Solubilization of the formazan crystals was achieved by adding 100 μl 2-propanol. Cell viability was determined by measuring the absorbance of the reduced formazan, giving a purple color, at 540 nm and 690 nm. The absorbance measured at 690 nm was automatically subtracted from the absorbance at 540 nm, to eliminate the effects of non-specific absorption. The percent cytotoxicity achieved by the compounds was calculated according to standard methods. Cytotoxicity is reported as CC50, the concentration that causes a 50% reduction in cell viability.
The results are depicted in the table(s) below (HELAM).

Structure (SMILES) | IC50 [1] [µM] | IC90 (S. aureus) [µg/mL] | melting point | IC90 [2] [µg/mL] | CC50 at 72 h [3] [µg/mL] | STA (361.159) IC90 ([2]; Staphylococcus aureus ATCC 29213, broth microdilution) [µg/mL]
CC(C)C1Oc2cc(/C=C/C(=O)N3CC4C=C(c5nccs5)CC4C3)cnc2NC1=O (centres unmarked) [compound 64] | 0.825 | < 0.21 | 223.55 °C | < 0.21 | > 11 | –
Cc1cc(C(=O)Nc2ccc(/C=C/C(=O)N3CC4C=C(c5ccccc5)CC4C3)cn2)c(C)o1 (centres unmarked) [compound 19] | 4.67 | 16.1 | 184.41 °C | 1.61 (≈ 3.55 µM) | 10.8 (≈ 23.7 µM) | –
Cc1cncc(C(=O)Nc2ccc(/C=C/C(=O)N3CC4C=C(c5ccccc5)CC4C3)cn2)c1 (centres unmarked) [compound 1] | 1.82 | 0.67 | 214 °C | 0.17 (≈ 0.377 µM) | > 4.5 | –
O=C1COCc2cc(/C=C/C(=O)N3C[C@H]4CC(c5ccccc5)=C[C@H]4C3)cnc2N1 (single isomer, unassigned) [compound 53] | 1.47 | 0.7 | 272.58 °C | 0.37 (≈ 0.922 µM) | > 10.1 | –
O=C1Nc2ncc(/C=C/C(=O)N3CC4C=C(c5ccccc5)CC4C3)cc2CN2CCOCC12 (centres unmarked) [compound 78] | 1.07 | < 0.22 | 242 °C | – | > 11.5 | 0.31
Cn1nccc1C1=CC2CN(C(=O)/C=C/c3cnc4c(c3)CN3CCOCC3C(=O)N4)CC2C1 (centres unmarked) [compound 85] | 0.955 | 1.62 | 226 °C | 1.67 (≈ 3.63 µM) | > 11.6 | –
CC(=O)N1CCN2C(=O)c3cc(/C=C/C(=O)N4CC5C=C(c6ccccc6)CC5C4)cnc3NC(=O)C2C1 (centres unmarked) [compound 83] | 1.23 | 0.47 | 262 to 264 °C | 0.48 (≈ 0.938 µM) | > 12.9 | –
COc1cncc(C(=O)Nc2ccc(/C=C/C(=O)N3CC4C=C(c5ccncc5)CC4C3)cn2)c1 (centres unmarked) [compound 30] | 1.39 | < 0.23 | 142 °C | < 0.23 | > 11.7 | –
CC(=O)Nc1ccc(/C=C/C(=O)N2CC3C=C(c4ccccc4)CC3C2)cn1 (centres unmarked) [compound 10] | 1.07 | 0.5 | 251 °C and 251.61 °C | 0.34 (≈ 0.91 µM) | > 9.38 | –
CN1CCN2C(=O)c3cc(/C=C/C(=O)N4CC5C=C(c6ccccc6)CC5C4)cnc3NC(=O)C2C1 (centres unmarked) [compound 82] | 0.993 | 0.43 | > 270 °C | 0.45 (≈ 0.931 µM) | > 12.1 | –
O=C1CNC(=O)c2cc(/C=C/C(=O)N3CC4C=C(c5ccccc5)CC4C3)cnc2N1 (centres unmarked) [compound 66] | 0.651 | 0.79 | 226 °C | 0.76 (≈ 1.83 µM) | > 10.4 | –
Cc1cncc(C(=O)Nc2ccc(/C=C/C(=O)N3CC4C=C(c5ccncc5)CC4C3)cn2)c1 (centres unmarked) [compound 8] | 1.24 | 0.398 | 202.82 °C | 0.316 (≈ 0.7 µM) | > 11.3 | –
O=C(Nc1ccc(/C=C/C(=O)N2CC3C=C(c4ccccc4)CC3C2)cn1)c1ccoc1 (centres unmarked) [compound 2] | 7.59 | 1.66 | 202 °C | 0.21 (≈ 0.494 µM) | 7.57 (≈ 17.8 µM) | –
O=C1Nc2ncc(/C=C/C(=O)N3CC4C=C(c5ccccc5)CC4C3)cc2C(=O)N2CCOCC12 (centres unmarked) [compound 76] | 1.23 | 0.41 | 278.12 °C | 0.25 (≈ 0.531 µM) | > 11.8 | –
O=C1COc2cc(/C=C/C(=O)N3CC4C=C(c5ccncc5)CC4C3)cnc2N1 (centres unmarked) [compound 36] | 1.13 | < 0.08 | > 260 °C | 0.16 (≈ 0.412 µM) | > 3.88 | –
O=C1Nc2ncc(/C=C/C(=O)N3CC4C=C(c5ccccc5)CC4C3)cc2CO1 (centres unmarked) [compound 51] | 0.903 | 0.71 | > 250 °C | 0.35 (≈ 0.903 µM) | > 9.73 | –
O=C1Nc2ncc(/C=C/C(=O)N3CC4C=C(c5ccncc5)CC4C3)cc2CN2CCOCC12 (centres unmarked) [compound 80] | 0.743 | 0.38 | 212 °C | 0.42 (≈ 0.918 µM) | > 11.5 | –
O=C1COCc2cc(/C=C/C(=O)N3CC4C=C(c5ccsc5)CC4C3)cnc2N1 (centres unmarked) [compound 41] | 1.03 | 0.23 | 152 °C | < 0.2 | > 10.2 | –
COC(=O)CCC(=O)Nc1ccc(/C=C/C(=O)N2CC3C=C(c4ccccc4)CC3C2)cn1 (centres unmarked) [compound 18] | 2.56 | 3.05 | 216 °C and 216.42 °C | 1.6 (≈ 3.59 µM) | > 11.2 | –
O=C1CNCc2cc(/C=C/C(=O)N3CC4C=C(c5ccncc5)CC4C3)cnc2N1 (centres unmarked) [compound 52] | 0.971 | 0.35 | > 260 °C | 0.37 (≈ 0.922 µM) | > 10.1 | –
O=C1Nc2ncc(/C=C/C(=O)N3CC4C=C(c5ccsc5)CC4C3)cc2CN2CCOCC12 (centres unmarked) [compound 70] | 1.45 | 0.2 | > 250 °C | 0.17 (≈ 0.368 µM) | > 11.6 | –
CC(=O)N1CCN2Cc3cc(/C=C/C(=O)N4CC5C=C(c6cccs6)CC5C4)cnc3NC(=O)C2C1 (centres unmarked) [compound 75] | 1.29 | < 0.25 | 215 to 230 °C | < 0.25 | > 12.7 | –
Cc1cncc(C(=O)Nc2ccc(/C=C/C(=O)N3CC4C=C(c5ccnn5C)CC4C3)cn2)c1 (centres unmarked) [compound 16] | 1.32 | 1.63 | 173.34 °C | 1.25 (≈ 2.75 µM) | > 11.4 | –
COc1ccccc1N1C[C@H]2CN(C(=O)/C=C/c3cnc4c(c3)CN(C)CC(=O)N4)C[C@H]2C1 [compound 59] | 2.23 | 3.17 | 114 °C | 3.39 (≈ 7.57 µM) | > 11.2 | –
Nc1ccc(/C=C/C(=O)N2CC3C=C(c4ccccc4)CC3C2)cn1 (centres unmarked) [compound 15] | 2.35 | 2.43 | 236 °C | 1.23 (≈ 3.71 µM) | > 8.32 | –
